Data on 7 molecules can be found in patent US12576030B2, “Compositions for delivery of codon-optimized mRNA” (Translate Bio, Inc., priority 2020, dated 2026).

Structures are written as SMILES. “Also recorded” adds a separate entry of the source.

In this assay the test system is male CD1 mice. As to the kind of experiment: Luciferase radiance in lung after pulmonary delivery of FFL mRNA-LNPs. Particulars: for potency as determined by the average radiance detected in mouse lungs: FFL mRNA-LNP, single intratracheal administration via nebulization, about 5 hours post-dose. The format is in vivo. As to the method:
About 150 cationic lipids were tested. (FIG. 7). Each cationic lipid was used in preparing lipid nanoparticles encapsulating mRNA encoding firefly luciferase protein (FFL mRNA) according to methods known in the art. For example, suitable methods for mRNA encapsulation include methods described in International Publication Nos. WO2016/004318 and WO 2018/089801, which is hereby incorporated by reference in its entirety. The tested lipid nanoparticles comprised a lipid component consisting of a cationic lipid, a non-cationic lipid (DOPE), a PEG-modified lipid (DMG-PEG2K), and optionally cholesterol.
Lipid nanoparticle formulations comprising FFL mRNA were administered to male CD1 mice by a single intratracheal administration via nebulization using a Microsprayer®. At approximately 5 hours post-dose, the animals were dosed with luciferin by intraperitoneal injection and all animals were imaged using an IVIS imaging system to measure luciferase production in the lung. […] Some cationic lipids remarkably had greater than 50-fold increase in pulmonary protein expression as compared to other cationic lipids.

Turning to `CCCCC/C=C\C/C=C\CCCCCCCC(=O)OCC(COC(=O)CCCCCCC/C=C\C/C=C\CCCCC)(COC(=O)CCCCCCC/C=C\C/C=C\CCCCC)NCCS(=O)(=O)NCCN(C)C` [GL-TES-SA-DME-E18-2, 2-((2-(N-(2-(dimethylamino)ethyl)sulfamoyl)ethyl)amino)-2-((((9Z,12Z)-octadeca-9,12-dienoyl)oxy)methyl)propane-1,3-diyl (9Z,9′Z,12Z,12′Z)-bis(octadeca-9,12-dienoate)], the “potency as determined by the average radiance detected in mouse lungs” value (“potency as determined” below) is “performed particularly well; also recorded: particularly high potency”.

For the molecule `CCCCC/C=C\C/C=C\CCCCCCCC(=O)OCC(COC(=O)CCCCCCC/C=C\C/C=C\CCCCC)(COC(=O)CCCCCCC/C=C\C/C=C\CCCCC)NCCS(=O)(=O)NCCCN(C)C` [GL-TES-SA-DMP-E18-2], the “potency as determined” value was “performed particularly well; also recorded: particularly high potency”.

`CCCCCCCCC(O)CN(CCCC(=O)OCCN1CC(C)N(CCOC(=O)CCCN(CC(O)CCCCCCCC)CC(O)CCCCCCCC)CC1C)CC(O)CCCCCCCC` (centres unmarked) [HEP-E3-E10]: the “potency as determined” value was “performed particularly well”. The “potency as determined” value (listed as REP-E3-E10) is listed as “particularly high potency”.

Turning to `CCCCCCCCC(O)CN(CCCCC(=O)OCCN1CC(C)N(CCOC(=O)CCCCN(CC(O)CCCCCCCC)CC(O)CCCCCCCC)CC1C)CC(O)CCCCCCCC` (centres unmarked) [HEP-E4-E10], the “potency as determined” value is “performed particularly well; also recorded: particularly high potency”.

In the case of `CC(C)CCCC(C)C1CCC2C3CC=C4CC(OC(=O)CCc5cnc[nH]5)CCC4(C)C3CCC12C` (centres unmarked) [ICE, imidazole cholesterol ester, reference compound], the “historical radiance/expression of pulmonary-delivered FFL mRNA in LNP” value (LNP comprising the named cationic lipid, pulmonary-delivered (e.g., nebulized)) is “around 10^4 p/s/cm^2sr”.

In the case of `CCCCCCCCOC(=O)CC(CC(=O)OCCCCCCCC)(OC(=O)CCN(C)C)C(=O)OCCCCCCCC` [TL1-01D-DMA, trioctyl 2-((3-(dimethylamino)propanoyl)oxy)propane-1,2,3-tricarboxylate], the “potency as determined” value was “performed particularly well; also recorded: particularly high potency”.

For the molecule `CCCCCCCCCCCCCCOC(=O)CC(CC(=O)OCCCCCCCCCCCCCC)(OC(=O)CCN(C)C)C(=O)OCCCCCCCCCCCCCC` [TL1-04D-DMA], the “potency as determined” value is recorded as “performed particularly well; also recorded: particularly high potency”.
